Where a SMILES comes first, the peptide text is derived from it. [ ]: non-standard residue; d: D form.
How the values were obtained:
Endothelin-1 receptor = biological target: T1, Endothelin-1 receptor (Homo sapiens, UniProt P25101); test: Affinity against ET A receptor
T1 sequence (P25101 whole entry): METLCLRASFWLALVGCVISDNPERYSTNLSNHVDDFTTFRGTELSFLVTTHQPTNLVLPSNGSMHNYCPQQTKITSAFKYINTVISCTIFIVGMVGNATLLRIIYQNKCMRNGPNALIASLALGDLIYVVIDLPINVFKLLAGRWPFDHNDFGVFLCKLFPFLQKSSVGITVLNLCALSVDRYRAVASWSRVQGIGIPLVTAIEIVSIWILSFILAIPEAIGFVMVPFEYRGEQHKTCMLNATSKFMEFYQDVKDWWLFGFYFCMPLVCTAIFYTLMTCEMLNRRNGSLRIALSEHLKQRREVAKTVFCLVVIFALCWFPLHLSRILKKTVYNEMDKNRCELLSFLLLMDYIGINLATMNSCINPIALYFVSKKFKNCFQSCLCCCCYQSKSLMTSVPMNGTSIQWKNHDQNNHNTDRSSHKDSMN

[1] = biological target: T2, Endothelin receptor type B (Rattus norvegicus, UniProt P21451); test: Affinity against ET B receptor
T2 sequence (P21451 whole entry): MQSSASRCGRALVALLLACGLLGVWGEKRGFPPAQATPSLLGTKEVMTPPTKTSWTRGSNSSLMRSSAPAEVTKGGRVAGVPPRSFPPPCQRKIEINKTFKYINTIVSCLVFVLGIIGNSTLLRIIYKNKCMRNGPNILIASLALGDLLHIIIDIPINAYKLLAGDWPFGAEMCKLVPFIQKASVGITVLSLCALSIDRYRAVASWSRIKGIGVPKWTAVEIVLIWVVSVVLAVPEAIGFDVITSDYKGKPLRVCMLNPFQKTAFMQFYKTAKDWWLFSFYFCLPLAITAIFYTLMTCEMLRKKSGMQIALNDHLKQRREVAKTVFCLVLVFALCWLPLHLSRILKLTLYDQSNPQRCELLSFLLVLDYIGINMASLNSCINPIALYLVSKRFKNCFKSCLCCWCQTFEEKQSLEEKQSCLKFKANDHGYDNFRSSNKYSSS

Compound | Ki (Endothelin-1 receptor) | Ki [1]
CCCN1c2ccccc2C(=O)N(CC(=O)O)c2cc(NC(=O)Cc3c[nH]c4ccccc34)ccc21 | 14 µM | 7 µM
CCCN1c2ccccc2C(=O)N(CC(=O)O)c2cc(NC(=O)c3cc4ccccc4[nH]3)ccc21 | 33 µM | 6 µM
CC(C)C[C@@H]1NC(=O)[C@@H](C(C)C)NC(=O)[C@@H]2CCCN2C(=O)[C@@H](CC(=O)O)NC(=O)[C@@H](Cc2c[nH]c3ccccc23)NC1=O [BQ-123] (cyclo(L[dW][dD]P[dV])) | 0.018 µM | –
CC(C)C[C@@H]1NC(=O)[C@@H](C(C)C)NC(=O)[C@@H]2CCCN2C(=O)[C@@H](CC(=O)O)NC(=O)[C@@H](Cc2cccc3ccccc23)NC1=O | 0.224 µM | –
CCCN1c2ccccc2C(=O)N(CC(=O)O)c2cc(Cc3c[nH]c4ccccc34)ccc21 | 41 µM | 12 µM
CCCN1c2ccccc2C(=O)N(CC(=O)O)c2cc(NC(=O)c3c[nH]c4ccccc34)ccc21 | 80 µM | 11 µM
CC(C)C[C@@H]1NC(=O)[C@@H](C(C)C)NC(=O)[C@@H]2CCCN2C(=O)[C@@H](CC(=O)O)NC(=O)[C@@H](Cc2ccccc2)NC1=O | 2.4 µM | –
CCCN1c2ccccc2C(=O)N(CC(=O)O)c2cc(NC(=O)c3cccc4ccccc34)ccc21 | 83 µM | –

Continued, values first:

Ki (Endothelin-1 receptor) | Ki [1] | Compound
17 µM | 9 µM | CCCN1c2ccccc2C(=O)N(CC(=O)O)c2cc(NCc3cccc4ccccc34)ccc21
28 µM | 8 µM | O=C(O)CN1C(=O)c2ccccc2Nc2ccc(OCc3cccc4ccccc34)cc21
109 µM | > 100 µM | O=C(O)CN1C(=O)c2ccccc2Nc2ccc(OCc3ccccc3)cc21
7 µM | 60 µM | CCCN1c2ccccc2C(=O)N(CC(=O)O)c2cc(OCc3cccc4ccccc34)ccc21

Reference: ChEMBL document CHEMBL1128621, “Design and synthesis of nonpeptidal endothelin receptor antagonists based on the structure of a cyclic pentapeptide” (Bioorg Med Chem Lett, 1995)
